Data on three compounds can be found in paper PMC10515640, “Structure-Based Optimization of Covalent, Small-Molecule Stabilizers of the 14-3-3σ/ERα Protein–Protein Interaction from Nonselective Fragments” (Journal of the American Chemical Society, 2023).

Molecules are shown by their SMILES.

Assay [1] deals with T1, 14-3-3σ/ERα (Homo sapiens, UniProt P03372+P31947).
T1 construct: The 14-3-3 σ isoform (full-length for mass spectrometry and fluorescence anisotropy assays, ΔC for crystallography); made in house; host or cells: E. coli Rosetta 2(DE3)pLysS, pPROEX HTb vector
The assay is described as follows: Mass spectrometry dose response, compound binding to 14-3-3σ in the presence of ERα phosphopeptide. The note with it: 100 nM compound, 100 nM 14-3-3σ, ERα-peptide 2 µM. In a few lines:
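Covalent labeling of Cys38 on 14-3-3σ was tracked by LC-MS on a Waters Acquity UPLC/Xevo G2-XS Q-Tof, with samples desalted on a Protein BEH-C4 column. Full-length wild type 14-3-3σ (100 nM) plus ERα phosphopeptide was mixed with compound in 10 mM TRIS, pH 8.0, at 50 μl per well. Percent bound was measured at several time points.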

Assay [2] deals with T1, 14-3-3σ/ERα. The assay is described as follows: Fluorescence anisotropy protein titration, FAM-labeled ERα peptide. Conditions: 10 nM FAM-ERα peptide; for X Fold stabilization (100 µM compound) of 14-3-3σ/ERα: versus DMSO reference; for Kd: 100 µM compound, overnight incubation. The format is binding. How it is done:
To evaluate compound-mediated stabilization of the 14-3-3σ/ERα complex directly, FA protein titrations were performed at a saturating concentration of compound. FA protein titrations allowed the quantification of the cooperative effect by comparing the apparent dissociation constants (appKD) of the binary and ternary complexes. 14-3-3σ was titrated into 10 nM FAM-labeled ERα peptide in the presence of DMSO or 100 μM of the compounds (Table S4). […]
diluted in buffer (10 mM HEPES, pH 7.5, 150 mM NaCl, 0.1% Tween20, 1 mg/mL Bovine Serum Albumin (BSA; Sigma-Aldrich). Final DMSO in the assay was always 1%. […]
Protein titrations were made by titrating 14-3-3σ in a 2-fold dilution series (starting at 300 µM) to a mix of fluorescein-labeled peptide (10 nM) and DMSO or compound (100 µM). Fluorescence anisotropy measurements were performed after overnight incubation at room temperature. […]
Wells containing only FAM-peptide were used to set as G-factor at 35 mP. Data reported are at endpoint. EC50 and apparent Kd values were obtained from fitting the data with a four-parameter logistic model (4PL) in GraphPad Prism 7 for Windows. Data was obtained and averaged based on either three (compound titrations) or two (protein titrations) independent experiments.
For orientation: Fluorescence polarisation rises when a labelled molecule tumbles more slowly, as on binding a larger partner.

In assay [3] the target is T1, 14-3-3σ/ERα. Briefly: Fluorescence anisotropy compound titration, FAM-labeled ERα peptide. Conditions: 10 nM ERα-FAM labeled peptide, 1 µM 14-3-3σ, overnight incubation (24 h); read-out: EC50 value ERα (FA compound titration). The class given is binding. In short, it runs like this: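 Fluorescence anisotropy compound titration measuring stabilization of the 14-3-3σ/ERα interaction: compounds were titrated in a 2-fold dilution series (starting at 500 or 1000 µM) into a mix of 10 nM fluorescein-labeled ERα peptide and 1 µM 14-3-3σ (about EC25 of the complex) in HEPES buffer with 1% DMSO, read after overnight incubation at room temperature; EC50 from 4PL fitting.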

Assay [4] has as its target T2, 14-3-3σ (Homo sapiens, UniProt P31947).
T2 construct: The 14-3-3 σ isoform (full-length for mass spectrometry and fluorescence anisotropy assays, ΔC for crystallography); made in house; host or cells: E. coli Rosetta 2(DE3)pLysS, pPROEX HTb vector
T2 sequence (P31947 1-248): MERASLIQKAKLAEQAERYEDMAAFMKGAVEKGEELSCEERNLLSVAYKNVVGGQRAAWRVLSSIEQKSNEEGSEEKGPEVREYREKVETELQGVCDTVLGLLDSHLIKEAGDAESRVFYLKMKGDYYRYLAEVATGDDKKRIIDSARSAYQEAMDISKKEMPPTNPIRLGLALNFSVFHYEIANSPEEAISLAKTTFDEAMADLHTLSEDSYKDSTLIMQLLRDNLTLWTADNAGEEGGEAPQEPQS
Briefly: Mass spectrometry dose response, compound binding to 14-3-3σ in the absence of peptide (apo). The note with it: 100 nM compound, 100 nM 14-3-3σ. In short, it runs like this: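 Covalent binding of compounds to Cys38 of full-length wild type human 14-3-3σ (100 nM) was measured by LC-MS without peptide present. Compounds from 50 mM DMSO stocks were serially diluted 3-fold and 1000 nl transferred to plates in TRIS buffer (10 mM, pH 8.0), 50 μl per well. Samples were desalted on a BEH-C4 column and analysed on a Xevo G2-XS Q-Tof at several time points.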

The target in assay [5] is T3, 14-3-3σ/C-RAF (Homo sapiens, UniProt P31947).
T3 construct: The 14-3-3 σ isoform (full-length for mass spectrometry and fluorescence anisotropy assays, ΔC for crystallography); made in house; host or cells: E. coli Rosetta 2(DE3)pLysS, pPROEX HTb vector
T3 sequence (P31947 1-248): T2 sequence (P31947 1-248)
The assay is described as follows: Fluorescence anisotropy compound titration, FAM-labeled C-RAF peptide. Conditions: 10 nM C-RAF-FAM labeled peptide, 5 µM 14-3-3σ, overnight incubation; read-out: EC50 value C-RAF (FA compound titration). The class given is binding. In a few lines: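 A fluorescence anisotropy compound titration measured how compounds stabilize binding of 14-3-3σ to a fluorescein-labeled C-RAF peptide. Compounds were diluted 2-fold, from 500 or 1000 µM, into 10 nM labeled peptide with 5 µM 14-3-3σ, roughly its EC25, in HEPES buffer with 1% DMSO. Plates were read after overnight incubation at room temperature. EC50 values came from 4PL fits over three independent experiments.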

Assay [6] addresses T3, 14-3-3σ/C-RAF. The assay is described as follows: Mass spectrometry dose response, compound binding to 14-3-3σ in the presence of C-RAF phosphopeptide. Conditions: 100 nM compound, 100 nM 14-3-3σ, C-RAF peptide 18 µM. In a few lines: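 Covalent binding of compounds to the native Cys38 of 14-3-3σ was monitored by LC-MS on a Waters Acquity UPLC/Xevo G2-XS Q-Tof, with samples desalted on a BEH-C4 column. Full-length wild type 14-3-3σ (100 nM) with C-RAF peptide in TRIS buffer (10 mM, pH 8.0) was incubated with compound dose series at room temperature.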

For orientation: Kd means the constant that tells how readily two partners part at equilibrium. High values mean weaker binding, low ones tighter binding. On to `O=C(CCl)NC1CC2(CCN(C(=O)C3(Nc4ccc(Cl)cc4)CCOCC3)CC2)C1` [compound 166], for which, in assay [1], the “Percentage (%) bound of compound to 14-3-3σ, ERα 1h” value (“Percentage (%) bound … ERα 1h” below) is listed as 32.6%; the “Percentage (%) bound of compound to 14-3-3σ, ERα 8h” value (“Percentage (%) bound … ERα 8h” for short) is recorded as 60.3%; the “Percentage (%) bound of compound to 14-3-3σ, ERα 16h” value (from here on “Percentage (%) bound … ERα 16h”) was found to be 87.6%; the “Percentage (%) bound of compound to 14-3-3σ, ERα 24h” value (shortened to “Percentage (%) bound … ERα 24h”) is recorded as 94.0%. Moreover, in assay [2], the “X Fold stabilization (100 µM compound) of 14-3-3σ/ERα” value (“X Fold stabilization” below) was determined as 13 fold and the affinity, expressed as Kd, was 0.16 µM. The EC50 in assay [3] was determined as 6 ± 0.3 µM. Further, in assay [4], the “Percentage (%) bound of compound to 14-3-3σ, APO 1h” value (from here on “Percentage (%) bound … APO 1h”) is 1.2%; the “Percentage (%) bound of compound to 14-3-3σ, APO 8h” value (from here on “Percentage (%) bound … APO 8h”) is listed as 3.2%; the “Percentage (%) bound of compound to 14-3-3σ, APO 16h” value (from here on “Percentage (%) bound … APO 16h”) came out at 5.5%; the “Percentage (%) bound of compound to 14-3-3σ, APO 24h” value (shortened to “Percentage (%) bound … APO 24h”) is reported as 13.3%. The EC50 in assay [5] came to 77 ± 5 µM. Also, in assay [6], the “Percentage (%) bound of compound to 14-3-3σ, CRAF 1h” value (“Percentage (%) bound … CRAF 1h” below) is 1.8% and the “Percentage (%) bound of compound to 14-3-3σ, CRAF 8h” value (from here on “Percentage (%) bound … CRAF 8h”) is reported as 4.0%. The “Percentage (%) bound of compound to 14-3-3σ, CRAF 24h” value (shortened to “Percentage (%) bound … CRAF 24h”) in assay [6] (24h) is on record as 23.3%. Also, the “Percentage (%) bound … CRAF 24h” value in assay [6] (head prints 24h) was found to be 11.8%.
Turning to `O=C(CCl)N1CCC2(CC1)CCN(C(=O)C1(Nc3ccc(Cl)cc3)CCOCC1)CC2` [compound 170], in assay [1], the “Percentage (%) bound … ERα 1h” value came to 38.2%; the “Percentage (%) bound … ERα 8h” value is 68.1%; the “Percentage (%) bound … ERα 16h” value turned out to be 86.2%; the “Percentage (%) bound … ERα 24h” value worked out at 94.0%. Also, in assay [2], the “X Fold stabilization” value amounted to 12 fold and the affinity, expressed as Kd, was 0.119 µM. Also, in assay [3], the EC50 turned out to be 8 ± 1 µM. In assay [4], the “Percentage (%) bound … APO 1h” value came out at 1.0%; the “Percentage (%) bound … APO 8h” value came to 1.8%; the “Percentage (%) bound … APO 16h” value stood at 3.4%; the “Percentage (%) bound … APO 24h” value is 5.3%. The EC50 in assay [5] was found to be 58 ± 11 µM. Besides, in assay [6], the “Percentage (%) bound … CRAF 1h” value stood at 3.6% and the “Percentage (%) bound … CRAF 8h” value is reported as 8.0%. For the same compound, in assay [6] (24h), the “Percentage (%) bound … CRAF 24h” value worked out at 19.7%. In addition, the “Percentage (%) bound … CRAF 24h” value in assay [6] (head prints 24h) is 12.1%.
Turning to `CC1CC(Nc2ccc(Cl)cc2)(C(=O)N2CCC(CNC(=O)CCl)CC2)CC(C)O1` (stereo not drawn) [compound 178], in assay [1], the “Percentage (%) bound … ERα 1h” value came out at 24.6%; the “Percentage (%) bound … ERα 8h” value is reported as 36.8%; the “Percentage (%) bound … ERα 16h” value is 77.5%; the “Percentage (%) bound … ERα 24h” value is given as 96.4%. In addition, in assay [2], the “X Fold stabilization” value is on record as 15 fold and the Kd amounted to 0.094 µM. Further, the EC50 in assay [3] came out at 12 ± 1 µM. Moreover, in assay [4], the “Percentage (%) bound … APO 1h” value was 0.9%; the “Percentage (%) bound … APO 8h” value is 1.7%; the “Percentage (%) bound … APO 16h” value is listed as 2.4%; the “Percentage (%) bound … APO 24h” value is on record as 2.5%. Besides, the EC50 in assay [5] worked out at 86 ± 11 µM. Further, in assay [6], the “Percentage (%) bound … CRAF 1h” value worked out at 0% and the “Percentage (%) bound … CRAF 8h” value came to 0.5%. In addition, the “Percentage (%) bound … CRAF 24h” value in assay [6] (24h) is given as 5.7%. Also, the “Percentage (%) bound … CRAF 24h” value in assay [6] (head prints 24h) is given as 2.0%.
